Laboratory results from US10501425B2, “Microbiocidal oxadiazole derivatives” (SYNGENTA PARTICIPATIONS AG, priority 2015, dated 2019).

Key:
[1] = system: Puccinia recondita f. Sp. Tritici; assay: Puccinia recondita f. sp. tritici / wheat / leaf disc preventative (brown rust); format: in vivo; conditions: foliar, 200 ppm in the applied formulation, wheat leaf segments cv. Kanzler, preventative (inoculated 1 day after application), compared to untreated, read-out: disease control
Summary of the method: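 Wheat cv. Kanzler leaf segments on agar sprayed with diluted compound, inoculated with brown rust spores 1 day later. Kept at 19° C., 75% rh, 12 h light/dark; percent disease control versus untreated segments scored 7 to 9 days after application, compounds tested at 200 ppm.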

[2] = system: Puccinia recondita f. Sp. Tritici; assay: Puccinia recondita f. sp. tritici / wheat / leaf disc curative (brown rust); format: in vivo; conditions: foliar, 24 h, 200 ppm in the applied formulation, wheat leaf segments cv. Kanzler, curative (applied 1 day after inoculation), compared to untreated, read-out: disease control
Protocol: (§1) Leaf disks or leaf segments of various plant species are cut from plants grown in a greenhouse. The cut leaf disks or segments are placed in multiwell plates (24-well format) onto water agar. The leaf disks are sprayed with a test solution before (preventative) or after (curative) inoculation. Compounds to be tested are prepared as DMSO solutions (max. 10 mg/ml) which are diluted to the appropriate concentration with 0.025% Tween20 just before spraying. The inoculated leaf disks or segments are incubated under defined conditions (temperature, relative humidity, light, etc.) according to the respective test system. A single evaluation of disease level is carried out 3 to 14 days after inoculation, depending on the pathosystem. Percent disease control relative to the untreated check leaf disks or segments is then calculated.
Wheat leaf segments cv. Kanzler are placed on agar in multiwell plates (24-well format). The leaf segments are then inoculated with a spore suspension of the fungus. Plates were stored in darkness at 19° C. and 75% relative humidity. The formulated test compound diluted in water was applied 1 day after inoculation. The leaf segments were incubated at 19° C. and 75% relative humidity under a light regime of 12 hours light/12 hours darkness in a climate cabinet and the activity of a compound was assessed as percent disease control compared to untreated when an appropriate level of disease damage appears in untreated check leaf segments (6 to 8 days after application).
(§2) The following compounds at 200 ppm in the applied formulation give at least 80% disease control in this test when compared to untreated control leaf disks under the same conditions, which show extensive disease development.

[3] = system: Phakopsora pachyrhizi; assay: Phakopsora pachyrhizi / soybean / leaf disc preventative (Asian soybean rust); format: in vivo; conditions: foliar, 200 ppm in the applied formulation, soybean leaf disks, compared to untreated, read-out: disease control
Protocol: as §1
Soybean leaf disks are placed on water agar in multiwell plates (24-well format) and sprayed with the formulated test compound diluted in water. One day after application leaf discs are inoculated by spraying a spore suspension on the lower leaf surface. After an incubation period in a climate cabinet of 24-36 hours in darkness at 20° C. and 75% rh leaf disc are kept at 20° C. with 12 h light/day and 75% rh. The activity of a compound is assessed as percent disease control compared to untreated when an appropriate level of disease damage appears in untreated check leaf disks (12 to 14 days after application).
as §2

[4] = system: Glomerella lacenarium (Colletotrichum lagenarium); assay: Glomerella lagenarium liquid culture / cucumber / preventative (anthracnose); format: cell-based; conditions: Colletotrichum orbiculare; 20 ppm in the applied formulation; liquid culture (PDB), growth inhibition measured photometrically 3 to 4 days after application; compared to untreated; read-out: disease control
Summary of the method: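 Conidia from cryogenic storage were mixed into potato dextrose broth. This was added to compound diluted from DMSO into 0.025% Tween20, tested at 20 ppm. Plates were incubated in the dark at 24 °C and 96% relative humidity, and growth was read photometrically after 2–7 days as % activity versus untreated check.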

O=C(NCc1ccc(-c2noc(C(F)(F)F)n2)cc1)OCCCCl [Compound 2.16, 3-chloropropyl N-[[4-[5-(trifluoromethyl)-1,2,4-oxadiazol-3-yl]phenyl]methyl]carbamate]
≥ 80%: pest or weed control at 200 ppm [1] | pest or weed control at 200 ppm [2] | pest or weed control at 200 ppm [3] | inhibition of growth at 20 ppm [4]

CC(=O)CC(C)C(=O)NCc1ccc(-c2noc(C(F)(F)F)n2)cc1 (centres unmarked) [Compound 1.9, 2-methyl-4-oxo-N-[[4-[5-(trifluoromethyl)-1,2,4-oxadiazol-3-yl]phenyl]methyl]pentanamide]
≥ 80%: pest or weed control at 200 ppm [1] | pest or weed control at 200 ppm [2] | pest or weed control at 200 ppm [3] | inhibition of growth at 20 ppm [4]

CCCC(=O)NCc1ccc(-c2noc(C(F)(F)F)n2)cc1 [Compound 1.10, N-[[4-[5-(trifluoromethyl)-1,2,4-oxadiazol-3-yl]phenyl]methyl]butanamide]
≥ 80%: pest or weed control at 200 ppm [1] | pest or weed control at 200 ppm [2] | pest or weed control at 200 ppm [3] | inhibition of growth at 20 ppm [4]

CCCCCC(=O)NCc1ccc(-c2noc(C(F)(F)F)n2)cc1 [Compound 1.8, N-[[4-[5-(trifluoromethyl)-1,2,4-oxadiazol-3-yl]phenyl]methyl]hexanamide]
≥ 80%: pest or weed control at 200 ppm [1] | pest or weed control at 200 ppm [2] | pest or weed control at 200 ppm [3] | inhibition of growth at 20 ppm [4]

O=C(NCc1ccc(-c2noc(C(F)(F)F)n2)cc1)OCCF [Compound 2.15, 2-fluoroethyl N-[[4-[5-(trifluoromethyl)-1,2,4-oxadiazol-3-yl]phenyl]methyl]carbamate]
≥ 80%: pest or weed control at 200 ppm [1] | pest or weed control at 200 ppm [2] | pest or weed control at 200 ppm [3] | inhibition of growth at 20 ppm [4]

CC(C)C(=O)NCc1ccc(-c2noc(C(F)(F)F)n2)c(F)c1 [Compound 1.77, N-[[3-fluoro-4-[5-(trifluoromethyl)-1,2,4-oxadiazol-3-yl]phenyl]methyl]-2-methyl-propanamide]
≥ 80%: pest or weed control at 200 ppm [1] | pest or weed control at 200 ppm [2] | pest or weed control at 200 ppm [3] | inhibition of growth at 20 ppm [4]

O=C(CC(F)(F)F)NCCc1ccc(-c2noc(C(F)(F)F)n2)cc1 [Compound 1.91, 3,3,3-trifluoro-N-[2-[4-[5-(trifluoromethyl)-1,2,4-oxadiazol-3-yl]phenyl]ethyl]propanamide]
≥ 80%: pest or weed control at 200 ppm [1] | pest or weed control at 200 ppm [3] | inhibition of growth at 20 ppm [4]

CCCC(=O)NCc1ccc(-c2noc(C(F)(F)F)n2)c(F)c1F [Compound 1.51, N-[[2,3-difluoro-4-[5-(trifluoromethyl)-1,2,4-oxadiazol-3-yl]phenyl]methyl]butanamide]
≥ 80%: pest or weed control at 200 ppm [1] | pest or weed control at 200 ppm [2] | pest or weed control at 200 ppm [3] | inhibition of growth at 20 ppm [4]

CCN(C)C(=O)NCc1ccc(-c2noc(C(F)(F)F)n2)cc1 [Compound 3.13, 1-ethyl-1-methyl-3-[[4-[5-(trifluoromethyl)-1,2,4-oxadiazol-3-yl]phenyl]methyl]urea]
≥ 80%: pest or weed control at 200 ppm [1] | pest or weed control at 200 ppm [2] | pest or weed control at 200 ppm [3] | inhibition of growth at 20 ppm [4]

COCCC(=O)NCCc1ccc(-c2noc(C(F)(F)F)n2)cc1 [Compound 1.85, 3-methoxy-N-[2-[4-[5-(trifluoromethyl)-1,2,4-oxadiazol-3-yl]phenyl]ethyl]propanamide]
≥ 80%: pest or weed control at 200 ppm [1] | pest or weed control at 200 ppm [2] | pest or weed control at 200 ppm [3] | inhibition of growth at 20 ppm [4]

CCCC(C)(C)C(=O)NCc1ccc(-c2noc(C(F)(F)F)n2)cc1 [Compound 1.4, 2,2-dimethyl-N-[[4-[5-(trifluoromethyl)-1,2,4-oxadiazol-3-yl]phenyl]methyl]pentanamide]
≥ 80%: pest or weed control at 200 ppm [1] | pest or weed control at 200 ppm [2] | pest or weed control at 200 ppm [3] | inhibition of growth at 20 ppm [4]

COCC(=O)NCc1ccc(-c2noc(C(F)(F)F)n2)c(F)c1 [Compound 1.80]
≥ 80%: pest or weed control at 200 ppm [1] | pest or weed control at 200 ppm [2] | pest or weed control at 200 ppm [3] | inhibition of growth at 20 ppm [4]

O=C(CC(F)(F)F)NCc1ccc(-c2noc(C(F)(F)F)n2)c(F)c1F [Compound 1.63, N-[[2,3-difluoro-4-[5-(trifluoromethyl)-1,2,4-oxadiazol-3-yl]phenyl]methyl]-3,3,3-trifluoro-propanamide]
≥ 80%: pest or weed control at 200 ppm [1] | pest or weed control at 200 ppm [2] | pest or weed control at 200 ppm [3] | inhibition of growth at 20 ppm [4]

O=C(NCc1ccc(-c2noc(C(F)(F)F)n2)cc1)OCCCCCl [Compound 2.13, 4-chlorobutyl N-[[4-[5-(trifluoromethyl)-1,2,4-oxadiazol-3-yl]phenyl]methyl]carbamate]
≥ 80%: pest or weed control at 200 ppm [1] | pest or weed control at 200 ppm [2] | pest or weed control at 200 ppm [3] | inhibition of growth at 20 ppm [4]

CC(=O)NCCc1ccc(-c2noc(C(F)(F)F)n2)cc1 [Compound 1.92, N-[2-[4-[5-(trifluoromethyl)-1,2,4-oxadiazol-3-yl]phenyl]ethyl]acetamide]
≥ 80%: pest or weed control at 200 ppm [1] | pest or weed control at 200 ppm [2] | pest or weed control at 200 ppm [3] | inhibition of growth at 20 ppm [4]

CC(C)OC(=O)NCc1ccc(-c2noc(C(F)(F)F)n2)cc1 [Compound 2.14, isopropyl N-[[4-[5-(trifluoromethyl)-1,2,4-oxadiazol-3-yl]phenyl]methyl]carbamate]
≥ 80%: pest or weed control at 200 ppm [1] | pest or weed control at 200 ppm [2] | pest or weed control at 200 ppm [3] | inhibition of growth at 20 ppm [4]

CONC(=O)NCc1ccc(-c2noc(C(F)(F)F)n2)cc1 [Compound 3.17, 1-methoxy-3-[[4-[5-(trifluoromethyl)-1,2,4-oxadiazol-3-yl]phenyl]methyl]urea]
≥ 80%: pest or weed control at 200 ppm [1] | pest or weed control at 200 ppm [2] | pest or weed control at 200 ppm [3] | inhibition of growth at 20 ppm [4]

CC(=O)NCc1ccc(-c2noc(C(F)(F)F)n2)c(F)c1F [Compound 1.65, N-[[2,3-difluoro-4-[5-(trifluoromethyl)-1,2,4-oxadiazol-3-yl]phenyl]methyl]acetamide]
≥ 80%: pest or weed control at 200 ppm [1] | pest or weed control at 200 ppm [2] | pest or weed control at 200 ppm [3] | inhibition of growth at 20 ppm [4]

CCC(C)C(=O)NCc1ccc(-c2noc(C(F)(F)F)n2)c(F)c1F (centres unmarked) [Compound 1.59, N-[[2,3-difluoro-4-[5-(trifluoromethyl)-1,2,4-oxadiazol-3-yl]phenyl]methyl]-2-methyl-butanamide]
≥ 80%: pest or weed control at 200 ppm [1] | pest or weed control at 200 ppm [3] | inhibition of growth at 20 ppm [4]

CCC(C)NC(=O)NCc1ccc(-c2noc(C(F)(F)F)n2)cc1 (centres unmarked) [Compound 3.7, 1-sec-butyl-3-[[4-[5-(trifluoromethyl)-1,2,4-oxadiazol-3-yl]phenyl]methyl]urea]
≥ 80%: pest or weed control at 200 ppm [1] | pest or weed control at 200 ppm [3] | inhibition of growth at 20 ppm [4]
